# According to US6013642A, “Use of estrone derivatives as steroid sulphatase inhibitors” (priority 1994, dated 2000):
# Tests used:
# [1] = tested on: mouse delayed type hypersensitivity model; assay: Delayed type hypersensitivity (SRBC, footpad swelling) in the mouse; type: in vivo; details: FIG. 11; 5 mg/kg s.c.; 24 h post challenge
# Description: 2. Delayed Type Hypersensitivity (DTH)
# On day 0, animals were injected intravenously with 10^6 washed SRBC in 0.1 ml saline. Four days later animals were challenged in the right hind footpad with 10^6 washed SRBC in 50 μl saline. Footpad thickness is measured prior to challenge, 24, 48 and 72 hours post challenge using calipers. Footpad swelling is determined as the difference in thickness prior and post challenge. The data are expressed as percentage change from the vehicle treated groups given sensitisation and challenge.
# Animals were randomised into 10 groups (n=7-8) and steroids given on day 0 and 4.
# Steroids were given on day 0 and 3 subcutaneously. Response at 24 h post challenge. Results given as mean±sem. $, *p<0.05 ANOVA.
# [2] = tested on: mouse contact sensitisation model; assay: Cellular infiltrate (anti-CD3 / anti-Mac-1 positive cells) in challenged ears, contact sensitisation; type: in vivo, mice; details: Experiment 7, FIG. 10; DHEAS 5 mg/kg days 0 and 5; 24 h following challenge
# Description: Animals were randomised into 7 groups (n=7-10) and steroids given on days 0 and 5. At 24 h following challenge, ears were removed, fixed and stained with either an anti-CD3 (T-cells) or anti-Mac-1 (monocytes/macrophages) antibody and the number of positive cells counted in 10 random fields.
# [3] = tested on: mouse contact sensitisation model; assay: Contact sensitisation (oxazalone, ear swelling) in mice; type: in vivo; details: for increase in ear thickness (steroid alone): 100 μg/mouse s.c. days 0, 4 and 5; for normal ear swelling (steroid alone): Experiment 4, FIG. 7; for normal ear swelling (steroid alone) / ear swelling response (steroid alone): 5 mg/kg s.c. days 0 and 4
# Description: 1. Contact Sensitisation (CS)
# On day 0, mice were painted on their shaved right flank with 50 μl 2.5% oxazalone or vehicle (acetone 4:1 olive oil). On day 5 animals were challenged on their dorsal right ear surface with 25 μl of either 0.75% or 0.25% oxazalone. Prior to ear challenge, and 24, 48 and 72 hour post challenge ear thickness was measured using an engineer's micrometers. Ear swelling is determined as the difference in thickness prior and post challenge. The data are expressed as percentage change from the vehicle treated groups given sensitisation and challenge.
# DHEA, DHEAS were administered at various times, generally at time of sensitisation (day 0) and time of challenge (day 3 or 4-DTH model, day 4 or 5-(CS-model) in order to obtain an augmentation of the immune response above non-steroid treated animals.
# Different doses of the inhibitors have been used, and compared to the effect of dexamethasone as potential immunosuppressive/anti-inflammatory agents.
# [4] = tested on: carrageenan pleurisy; assay: Carrageenan pleurisy; type: in vivo, Wistar Rats; details: FIG. 14; DEX 1 mg/kg p.o. at T=-1 h; six hours
# Description: Wistar Rats were anaesthetised and given intra-pleural injections of 0.5% carrageenan in saline at time 0. Six hours later the animals were killed and pleural cavity lavaged with 1 ml. citrated saline. Volume of fluid exudate and exudate cell concentration were measured. Animals were randomised to 5 treatment groups (n=6).
# [5] = Experiment 1, FIG. 4, 48 post challenge
# [6] = Experiment 2, FIG. 5, 100 μg/mouse s.c. days 0 and 5, 24 h post-challenge
# [7] = Metabolites Experiment 3, FIG. 17
SMILES,foot swelling response (steroid alone) [1],"increase in ear thickness (steroid alone) [3, 5]","ear swelling response [3, 6]",normal ear swelling (steroid alone) [3],"ear swelling response (steroid alone) [3, 7]",other results
"C[C@]12CC[C@H](OS(=O)(=O)O)CC1=CC[C@@H]1[C@@H]2CC[C@]2(C)C(=O)CC[C@@H]12 [DHEAS, DHEA sulphate]",clearly pro-immune (or pro-inflammatory),augmented the normal increase in ear thickness,significantly augmented the response,augmented the normal ear swelling,stimulatory response,"immune and inflammatory cell infiltrate into challenged ears [2]: can augment both immune and inflammatory cell infiltrate into challenged ears; anti-glucocorticoid effect on ear swelling ([3]; Experiment 3, FIG. 6, DHEAS 0.0005-50 mg/kg with corticosterone 5 mg/kg s.c. days 0 and 4): functional anti-glucocorticoid effect"
"C[C@@H]1C[C@H]2[C@@H]3CCC4=CC(=O)C=C[C@]4(C)[C@@]3(F)[C@@H](O)C[C@]2(C)[C@@]1(O)C(=O)CO [Dexamethasone, dexamethasone]",,reduced the response,inhibited,inhibited,,"fluid leakage (exudate) [4]: can completely inhibit fluid leakage; reduction of cellular influx [4]: 68%; degree of ear swelling ([3]; Experiment 5, FIG. 8, DEX 5 mg/kg s.c. days 0 and 4, 24 h): inhibited the degree of ear swelling"
CC12CCC(OS(=O)(=O)O)CC1=CCC1C2CCC2(C)C(O)CCC12 (stereo not drawn) [AEDS],,,,,stimulatory response,"ear swelling response ([3]; Metabolites Experiment 2, FIG. 16, AEDS 0.0005-5 mg/kg s.c. days 0 and 4): can augment the ear swelling response; dose for augmentation of ear swelling, less than seen with DHEAS ([3]; Metabolites Experiment 2, FIG. 16, relative to DHEAS): at least 1000 fold; substrate for the sulphatase enzyme in vivo [3, 7]: can serve as a physiological substrate for the sulphatase enzyme in vivo"
"CN(C)S(=O)(=O)Oc1ccc2c(c1)CC[C@@H]1[C@@H]2CC[C@]2(C)C(=O)CC[C@@H]12 [CT 2210, Estrone-3-0-(N,N-dimethyl)sulphamate]",,,,,,"ear swelling, inhibitor alone ([3]; Experiment 1, FIG. 4, 2 mg/mouse s.c. days 0, 4 and 5, 48 post challenge): able to attenuate the ear swelling seen in the absence of DHEA and DHEAS; reversal of stimulatory effects of DHEA and DHEAS on ear swelling ([3]; Experiment 1, FIG. 4, inhibitor 2 mg/mouse with DHEA or DHEAS 100 μg/mouse s.c. days 0, 4 and 5, 48 post challenge): able to reverse the stimulatory effects of either DHEA and DHEAS"
"C[C@]12CC[C@H](O)CC1=CC[C@@H]1[C@@H]2CC[C@]2(C)C(=O)CC[C@@H]12 [DHEA, Dehydroepiandrosterone]",clearly pro-immune (or pro-inflammatory),augmented the normal increase in ear thickness,significantly augmented the response,augmented the normal ear swelling,,"ear swelling response ([3]; Metabolites Experiment 1, FIG. 15, DHEA 0.005-5 mg/kg, AED 0.05-5 mg/kg s.c. days 0 and 4): can augment the ear swelling response"
